Experimental data from PubChem BioAssay (NCI).
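GI50 is the concentration that inhibits growth by half. TGI: total growth inhibition.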

Key:
Test in all cases: inhibition of tumour cell growth, NCI panel, 384-well format
A549 NSCLC = test system: A549 NSCLC
ACHN renal = test system: ACHN renal
BT-549 breast = test system: BT-549 breast
COLO 205 colon = test system: COLO 205 colon
EKVX NSCLC = test system: EKVX NSCLC
HL-60(TB) leukemia = test system: HL-60(TB) leukemia
HOP-62 NSCLC = test system: HOP-62 NSCLC
MDA-MB-231 breast = test system: MDA-MB-231 breast
NCI-H226 lung = test system: NCI-H226 lung
OVCAR-5 ovarian = test system: OVCAR-5 ovarian
SK-OV-3 ovarian = test system: SK-OV-3 ovarian
SNB-75 CNS = test system: SNB-75 CNS
TK-10 renal = test system: TK-10 renal

Row | SMILES | GI50 (A549 NSCLC) [µM] | TGI (A549 NSCLC) [µM] | GI50 (ACHN renal) [µM] | TGI (ACHN renal) [µM] | GI50 (BT-549 breast) [µM] | TGI (BT-549 breast) [µM] | GI50 (COLO 205 colon) [µM] | TGI (COLO 205 colon) [µM] | GI50 (EKVX NSCLC) [µM] | TGI (EKVX NSCLC) [µM] | GI50 (HL-60(TB) leukemia) [µM] | TGI (HL-60(TB) leukemia) [µM] | GI50 (HOP-62 NSCLC) [µM] | TGI (HOP-62 NSCLC) [µM] | GI50 (MDA-MB-231 breast) [µM] | TGI (MDA-MB-231 breast) [µM] | GI50 (NCI-H226 lung) [µM] | TGI (NCI-H226 lung) [µM] | GI50 (OVCAR-5 ovarian) [µM] | TGI (OVCAR-5 ovarian) [µM] | other results
1 | CC1=C(c2cccc(O)c2)[C@H](c2ccc(OCCN3CC(CF)C3)cc2)Oc2ccc(O)cc21 | 9.02 | 21.2 | 11.1 | 23.2 | 3.24 | 12.6 | 3.09 | 8.69 | 5.1 | 17.5 | 1.86 | 3.29 | 4.55 | 15 | 6.48 | 19.2 | 6.19 | 19.4 | 10.3 | 22.1 | GI50 (SK-OV-3 ovarian): 5.77 µM; TGI (SK-OV-3 ovarian): 18.3 µM; GI50 (SNB-75 CNS): 2.36 µM; TGI (SNB-75 CNS): 7.79 µM; GI50 (TK-10 renal): 5.15 µM; TGI (TK-10 renal): 17.6 µM
2 | Cc1cc([N+](=O)[O-])c(NS(=O)(=O)c2cccc(C(=O)O)c2)cc1-c1cccnc1 | > 100 | > 100 | > 100 | > 100 | > 100 | > 100 | > 100 | > 100 | > 100 | > 100 | > 100 | > 100 | > 100 | > 100 | > 100 | > 100 | > 100 | > 100 | > 100 | > 100 | GI50 (SK-OV-3 ovarian): > 100 µM; TGI (SK-OV-3 ovarian): > 100 µM; GI50 (SNB-75 CNS): > 100 µM; TGI (SNB-75 CNS): > 100 µM; GI50 (TK-10 renal): > 100 µM; TGI (TK-10 renal): > 100 µM
